Publication PMC9004346, “Development of small cyclic peptides targeting the CK2α/β interface” (Chemical Communications (Cambridge, England), 2022)
Substitutions are numbered along the chain they refer to. *1 amine or outer side, *2 acyl side, *3 side chain or, on linkers, in order; H or OH if unused. Where a SMILES comes first, the peptide text is derived from it. Bridges are numbered along the chain shown (N, C = ends). [ ]: non-standard residue; d: D form. Trp(2-yl) = O=C([C@H](Cc1c([*:3])[nH]c2ccccc12)N[*:1])[*:2]; hCys = N[C@@H](CCS)C(=O)O

Columns and labels:
CK2α [1] = biological target: T1, CK2α (Homo sapiens, UniProt P68400); experiment: Fluorescence polarisation (FP) assay: displacement of a CK2β-like fluorescent probe from CK2α; format: binding; settings: CK2α_WT (residues 2-329), fluorescein-labelled CK2β-based peptide probe, ±SEM
T1 construct: 571 nM CK2α_WT (residues 2-329); made in house
T1 sequence (P68400 2-329): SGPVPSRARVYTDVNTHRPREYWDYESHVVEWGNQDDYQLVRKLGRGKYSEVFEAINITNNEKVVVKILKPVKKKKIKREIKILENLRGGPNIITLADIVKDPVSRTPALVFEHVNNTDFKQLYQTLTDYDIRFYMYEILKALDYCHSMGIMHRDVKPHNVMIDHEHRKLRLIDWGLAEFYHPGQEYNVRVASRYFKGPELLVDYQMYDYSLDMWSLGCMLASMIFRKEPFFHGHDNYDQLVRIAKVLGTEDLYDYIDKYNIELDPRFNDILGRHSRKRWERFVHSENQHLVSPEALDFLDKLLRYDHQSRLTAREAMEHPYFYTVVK
Description: To assess the ability of the synthesised linear peptides to displace a CK2β-like fluorescent probe from CK2α, a fluorescence polarisation (FP) assay was used (Table 1, ESI 1.3.2 and Fig. S2, ESI ^†). […]
(§1) 1.5 Biophysical experiments
(§2) 1.5.1 Protein expression and purification
Three constructs of CK2α were used in this study. For FP assays, CK2α_WT was used (residues 2-329). […]
These constructs were cloned, expressed, and purified as previously described.19 1.5.2 Fluorescence polarisation
IC50’s were determined using a PHERAstar FS plate reader (BMG labtech). The fluorescein probe was measured using 485 nm excitation and 530 nm emission. The fluorescein probe was covalently linked to the N-terminus of the linear CK2β-based peptide RLYGFKIHPMAYQLQ. IC50’s were measured using 500, 167, 16.7, 8.33 and 0 μM of the test peptide at a constant concentration of DMSO. P7C8, P8C9, P+L and P+ were tested at concentrations of 50.0, 16.7, 1.67, 0.833 and 0 μM due to their higher potencies. The experiments were performed in a Corning 384-well plate with final concentrations of 571 nM CK2α_WT (residues 2-329), 7.4 μM fluorescent peptide (fluorescein probe was covalently linked to the N-terminus of the linear CK2β-based peptide RLYGFKIHPMAYQLQ), 200 mM NaCl, 40mM TRIS, 20 mM MgCl2 and pH 7.5. The plates were read after a 45 min incubation period. […]

CK2α [2] = biological target: T2, CK2α (Homo sapiens, UniProt P68400, K74A/K75A/K76A/R21S); experiment: Isothermal titration calorimetry (ITC) binding to CK2α; settings: 25 °C, CK2α_KA
T2 construct: CK2α_KA (residues 2-329) contained four mutations; made in house
T2 sequence (P68400 2-329 R21S/K74A/K75A/K76A): T1 sequence (P68400 2-329) with R20S, K73A, K74A, K75A
Description: Ligand efficiency (LE) is a commonly used statistic to evaluate and compare the effectiveness of drug candidates.17 Mathematically, it is related to the IC50 of the molecule, as well as the number of heavy atoms (non-hydrogen) it contains, as detailed in Equation 1. 18
Equation 1 Mathematical expression for the ligand efficiencies of compounds.18 pIC50 = -log10(IC50) LE = Number of non ‒ H atoms […]
greatest activity with the fewest heavy atoms.
as §1, §2
Three constructs of CK2α were used in this study. For FP assays, CK2α_WT was used (residues 2-329).
For ITC CK2α_KA construct was used whilst CK2α_FP10 was used for crystallisation purposes. CK2α_KA (residues 2-329) contained four mutations designed to aid crystallisation and solubility by reducing the overall charge of the protein; R21S, K74A, K75A and K76A. CK2α_FP 10 contained one mutation (R21S) and an N-terminal extension […] aimed at mimicking a substrate peptide for CK2α. These constructs were cloned, expressed, and purified as previously described.19 1.5.2 Fluorescence polarisation
IC50’s were determined using a PHERAstar FS plate reader (BMG labtech). The fluorescein probe was measured using 485 nm excitation and 530 nm emission. The fluorescein probe was covalently linked to the N-terminus of the linear CK2β-based peptide RLYGFKIHPMAYQLQ. IC50’s were measured using 500, 167, 16.7, 8.33 and 0 μM of the test peptide at a constant concentration of DMSO. P7C8, P8C9, P+L and P+ were tested at concentrations of 50.0, 16.7, 1.67, 0.833 and 0 μM due to their higher potencies. The experiments were performed in a Corning 384-well plate with final concentrations of 571 nM CK2α_WT (residues 2-329), 7.4 μM fluorescent peptide (fluorescein probe was covalently linked to the N-terminus of the linear CK2β-based peptide RLYGFKIHPMAYQLQ), 200 mM NaCl, 40mM TRIS, 20 mM MgCl2 and pH 7.5. The plates were read after a 45 min incubation period.
1.5.3 Isothermal titration calorimetry
All ITC experiments were performed at 25 °C using a MicroCal ITC-200 (GE Healthcare). […]

- IC50 (CK2α [1]): 1.7 ± 0.3 µM
- Kd (CK2α [2]): 0.75 µM
SMILES: CC(=O)N[C@H]1CCSc2[nH]c3ccccc3c2C[C@@H](C(N)=O)NC(=O)[C@H](CCCCN)NC(=O)[C@H](Cc2ccccc2)NC(=O)CNC(=O)[C@H](Cc2ccc(O)cc2)NC(=O)[C@H](CC(C)C)NC(=O)[C@H](CCCNC(=N)N)NC1=O [Peptide P8C9, (hC)C9RLYGFKWC9] (Ac-[hCys]RLYGFK[Trp(2-yl)]-NH2; thioether 1-8)
